Patent US10792328B2, “Nanocomplexes for delivery of saporin” (Trustees of Tufts College, priority 2013, dated 2020)

Legend:
MDA-MB-231 cancer cells = test: In vitro protein transfection (saporin delivery), cell viability by Alamar Blue assay; assay type: cell-based; conditions: MDA-MB-231 cells, under all four studied conditions
Procedure: Compositions 1-32 were tested for delivery of saporin into cells MDA-MB-231.
The two cells lines were purchased from ATCC (Manassas, Va.) and cultured in Dulbecco's Modified Eagle Medium (“DMEM”) supplemented with 10% Fetal Bovine Serum (“FBS”) and 1% penicillin/streptomycin at 37° C. in the presence of 5% CO2. For the protein transfection assay described below, cells were seeded in 96-well plates at a density of 10,000 cells per well a day prior to transfection.
To evaluate saporin delivery efficiency, lipid-like compound/saporin nanocomplexes prepared in Examples 19-54 were added to MDA-MB-231 cancer cells and incubated at 37° C. for 24 hours. The saporin concentration was 0.1 μg/250 μL in PBS. The same volume of PBS without any lipid-like compound or saporin was used as a control. The cell viability was determined by the Alamar Blue assay after 24 hours of incubation. All transfection studies were performed in quadruplicate.

4T1-12B breast tumors = test: In vivo cancer treatment, inhibition of tumor growth; conditions: BALB/c mice bearing 4T1-12B breast tumors, tail-vein injection every three days, 5.5 mg/kg lipid-like compound and 330 μg/kg saporin
Procedure: Composition 33 (i.e., 1-O16B/saporin) and Composition 34 (i.e., 1-O18B/saporin) were tested for in vivo inhibiting tumor growth following the procedure described below. More specifically, BALB/c mice bearing 4T1-12B breast tumors were developed from a 4T1-12B cell suspension in DMEM supplemented with 10% FBS at a concentration of 10^7 cells/ml. An aliquot (100 μl) of the cell suspension was injected into the mammary fat pad of 4-6 week-old female BALB/c mice. The mice were sorted into four groups randomly (n=7 for treatment group, n=5 for control groups) seven days after the injection. The mice were injected through tail-vein every three days. For the treatment group, each mouse was injected with 5.5 mg/kg of 1-O16B or 1-O18B and 330 μg/kg of saporin. Tumor volumes were measured every three days.
PBS without 1-O16B, 1-O18B, and saporin was also injected as a control. Comparative studies were also conducted using saporin in PBS without 1-O16B and 1-O18B.

| Compound | saporin delivery efficiency (MDA-MB-231 cancer cells) | tumor size (4T1-12B breast tumors; Day 16) | tumor size (4T1-12B breast tumors; Day 22) |
| --- | --- | --- | --- |
| CCCCCCCCCCSSCCOC(=O)CCN(C)CCCN(C)CCC(=O)OCCSSCCCCCCCCCC [Composition 80-O14B] | high saporin delivery efficiency | – | – |
| CCCCCCCCCCCCSSCCOC(=O)CCN(C)CCCN(C)CCC(=O)OCCSSCCCCCCCCCCCC [Composition 80-O16B] | high saporin delivery efficiency | – | – |
| CCCCCCCCCCCCCCCCOC(=O)CCN(C)CCCN(C)CCC(=O)OCCCCCCCCCCCCCCCC [Composition 80-O16] | high saporin delivery efficiency | – | – |
| CCCCCCCCCCCCCCSSCCOC(=O)CCN(C)CCCN(C)CCC(=O)OCCSSCCCCCCCCCCCCCC [Composition 80-O18B] | high saporin delivery efficiency | – | – |
| CCCCCCCCCCCCCCCCCCOC(=O)CCN(C)CCCN(C)CCC(=O)OCCCCCCCCCCCCCCCCCC [Composition 80-O18] | high saporin delivery efficiency | – | – |
| CCCCCCCCCCCCSSCCOC(=O)CCN(CCCN(CCO)CCO)CCC(=O)OCCSSCCCCCCCCCCCC [Composition 87-O16B] | high saporin delivery efficiency | – | – |
| saporin | – | more than 120 mm^3 | more than 250 mm^3 |
